Laboratory results taken from patent US20040127492A1 (Pharmacia Corporation, priority 2002, published 2004).
Like-named read-outs stand apart in the source and are kept apart here.

How the values were obtained:
MK-3 = MK-3 (Homo sapiens, UniProt Q16644); assay: MK-3 inhibition IC50 (similar method to MK-2, with appropriate modifications); type: biochemical; conditions: read-out: MK-3 Avg. IC50
Description: In practice, the selectivity of a cyclic pyrazole MK-2 inhibitor varies depending upon the condition under which the test is performed and on the inhibitors being tested. However, for the purposes of this specification, the selectivity of a cyclic pyrazole MK-2 inhibitor inhibitor can be measured as a ratio of the in vitro or in vivo IC50 value for inhibition of MK-3, divided by the IC50 value for inhibition of MK-2 (IC50 MK-3/IC50 MK-2). […] The MK-2 or MK-3 inhibiting activity of any of the compounds described herein can be determined by any one of several methods that are well known to those having skill in the art of enzyme activity testing. […] A similar method, with appropriate modifications, Can be used to measure MK-3 inhibitory activity. In addition, the efficacy of one of the present MK-2 inhibiting compounds in therapeutic applications can be determined by testing for inhibition of TNFα production in cell culture and in animal model assays.

MAPKAPK2 (MK-2) = MAPKAPK2 (MK-2) (Homo sapiens, UniProt P49137); assay: Determination of MK-2 IC50 (HSP-peptide phosphorylation, anion exchange resin capture assay); type: biochemical
MAPKAPK2 (MK-2), sequence (P49137 whole entry, species assumed): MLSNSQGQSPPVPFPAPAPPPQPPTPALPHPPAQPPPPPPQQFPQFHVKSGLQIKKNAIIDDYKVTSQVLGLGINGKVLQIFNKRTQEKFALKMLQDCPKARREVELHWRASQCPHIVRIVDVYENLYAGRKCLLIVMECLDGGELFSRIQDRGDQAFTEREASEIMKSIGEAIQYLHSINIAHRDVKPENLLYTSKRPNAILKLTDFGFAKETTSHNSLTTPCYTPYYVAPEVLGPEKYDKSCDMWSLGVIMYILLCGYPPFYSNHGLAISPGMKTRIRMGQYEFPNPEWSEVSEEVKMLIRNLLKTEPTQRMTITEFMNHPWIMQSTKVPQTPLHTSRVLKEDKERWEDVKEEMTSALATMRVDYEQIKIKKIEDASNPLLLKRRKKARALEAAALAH
Description: Determination of MK-2 IC50:
Recombinant MAPKAPK2 was phosphorylated at a concentration of 42-78 μM by incubation with 0.23 μM of active p38α in 50 mM HEPES, 0.1 mM EDTA, 10 mM magnesium acetate, and 0.25 mM ATP, pH 7.5 for one hour at 30° C.
The phosphorylation of HSP-peptide ([…]) by MAPKAPK2 was measured using an anion exchange resin capture assay method. The reaction was carried out in 50 mM β-glycerolphosphate, 0.04% BSA, 10 mM magnesium acetate, 2% DMSO and 0.8 mM dithiotheritol, pH 7.5 in the presence of the HSP-peptide with 0.2 μCi [γ^33P]ATP and 0.03 mM ATP. The reaction was initiated by the addition of 15 nM MAPKAPK2 and was allowed to incubate at 30° C. for 30 min. The reaction was terminated and [γ^33P]ATP was removed from solution by the addition of 150 μl of AG 1×8 ion exchange resin in 900 mM sodium formate pH 3.0. A 50 μl aliquot of head volume was removed from the quenched reaction mixture and added to a 96-well plate, 150 μl of Microscint-40 (Packard) was added and the amount of phosphorylated-peptide was determined. Allow the Microscint to sit in the plates for 60 minutes prior to counting.
Compounds are evaluated as potential inhibitors of the MK-2 kinase by measuring their effects on MK-2 phosphorylation of the peptide substrate. Compounds may be screened initially at two concentrations prior to determination of IC50 values. Screening results are expressed as percent inhibition at the concentrations of compound tested. For IC50 value determinations, Compounds are tested at six concentrations in ten-fold serial dilutions with each concentration tested in triplicate. Results are expressed as IC50 values in micromolar. The assay is performed at a final concentration of 2% DMSO.

[1] = Table 2, pyrazolylpyrazole MK-2 inhibitors
[2] = Table 2, pyrazolylpyrazole MK-2 inhibitors, read-out: MK-2 Avg. IC50
[3] = Table 1, phenoxypyrazole MK-2 inhibitors
[4] = Table 1, phenoxypyrazole MK-2 inhibitors, read-out: MK-2 Avg, IC50

MK-3, sequence (Q16644 whole entry, species assumed): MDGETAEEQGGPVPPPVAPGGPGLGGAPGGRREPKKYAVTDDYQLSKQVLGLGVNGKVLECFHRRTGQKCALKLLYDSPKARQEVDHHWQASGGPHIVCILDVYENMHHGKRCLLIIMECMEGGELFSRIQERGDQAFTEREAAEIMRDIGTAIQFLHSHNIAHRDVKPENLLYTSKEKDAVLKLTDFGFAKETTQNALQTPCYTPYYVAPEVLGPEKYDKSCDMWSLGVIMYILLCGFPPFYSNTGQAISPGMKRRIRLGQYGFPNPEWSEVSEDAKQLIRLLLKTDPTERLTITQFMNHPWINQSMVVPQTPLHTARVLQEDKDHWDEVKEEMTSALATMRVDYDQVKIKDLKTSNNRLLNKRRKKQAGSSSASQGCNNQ

## O=C1NCCCn2nc3c(c21)CCc1cnc(-c2cnc4ccccc4c2)cc1-3 [Example 30]
MK-3
  IC50: 11.9 µM
MAPKAPK2 (MK-2); read-out: MK-2 Avg. IC50
  IC50: 0.171 µM

## NCCCn1nc2c(c1C(=O)O)CCc1cnc(-c3ccc4c(c3)OCO4)cc1-2 [Example 7]
MK-3
  IC50: 0.269 µM
MAPKAPK2 (MK-2); read-out: MK-2 Avg. IC50
  IC50: 0.0296 µM

## O=C(O)c1c2c(nn1CCCNCCc1ccc(Br)cc1)-c1ccncc1CC2 [Example 46]
MK-3
  IC50: 10.7 µM
MAPKAPK2 (MK-2); read-out: MK-2 Avg. IC50
  IC50: 0.325 µM

## NCCCn1nc2c(c1C(=O)O)CCc1cnc(-c3cccc([N+](=O)[O-])c3)cc1-2 [Example 2]
MK-3
  IC50: 0.142 µM
MAPKAPK2 (MK-2); read-out: MK-2 Avg. IC50
  IC50: 0.018 µM

## CCOC(=O)c1c2c(nn1CCCN)-c1c(SCc3ccccc3)n[nH]c1CC2 [Example 44]
MK-3; [1]
  IC50: ≥ 200 µM
MAPKAPK2 (MK-2); [2]
  IC50: 181 µM

## COc1cc2c(cc1OC)-c1n[nH]c(C(=O)n3ccnc3)c1CC2 [Example 169]
MK-3; [3]
  IC50: > 200 µM
MAPKAPK2 (MK-2); [4]
  IC50: > 200 µM

## O=C(O)c1c2c(nn1CCCNCCc1ccc(Cl)s1)-c1ccncc1CC2 [Example 57]
MK-3
  IC50: 8.85 µM
MAPKAPK2 (MK-2); read-out: MK-2 Avg. IC50
  IC50: 0.559 µM

## NCCn1nc2c(c1C(=O)O)CCc1cnccc1-2 [Example 68]
MK-3
  IC50: 43.1 µM
MAPKAPK2 (MK-2); read-out: MK-2 Avg. IC50
  IC50: 0.706 µM

## O=C(O)c1c2c(nn1CCCNCCc1ccc(Cl)cc1Cl)-c1ccncc1CC2 [Example 47]
MK-3
  IC50: 6.59 µM
MAPKAPK2 (MK-2); read-out: MK-2 Avg. IC50
  IC50: 0.347 µM

## O=C(O)c1c2c(nn1CCCNCCc1ccc(-c3ccc(C(F)(F)F)cc3)cc1)-c1ccncc1CC2 [Example 26]
MK-3
  IC50: 9.04 µM
MAPKAPK2 (MK-2); read-out: MK-2 Avg. IC50
  IC50: 0.147 µM

## COc1cc2c(cc1-c1ccncc1)-c1nn(CCCNC(=O)OC(C)(C)C)c(C(=O)O)c1CC2 [Example 67]
MK-3; [3]
  IC50: > 200 µM
MAPKAPK2 (MK-2); [4]
  IC50: 165 µM

## NC(=O)c1[nH]nc2c1CCc1c-2cnn1COCc1ccccc1 [Example 68]
MK-3; [1]
  IC50: ≥ 200 µM
MAPKAPK2 (MK-2); [2]
  IC50: ≥ 200 µM

## O=C1NCCn2nc3c(c21)CCc1cnc(-c2ccc(O)cc2)cc1-3 [Example 19]
MK-3
  IC50: 0.861 µM
MAPKAPK2 (MK-2); read-out: MK-2 Avg. IC50
  IC50: 0.0867 µM

## C=CCn1nc2c(c1C(=O)OCC)CCc1c-2cnn1C(c1ccccc1)(c1ccccc1)c1ccccc1 [Example 74]
MK-3; [1]
  IC50: ≥ 200 µM
MAPKAPK2 (MK-2); [2]
  IC50: ≥ 200 µM

## COc1cc2c(cc1-c1ccc(Cl)cc1)-c1nn(CCCNC(=O)OC(C)(C)C)c(C(=O)O)c1CC2 [Example 49]
MK-3; [3]
  IC50: 161 µM
MAPKAPK2 (MK-2); [4]
  IC50: 98.1 µM

## CC(C)(CCc1cc2c(cc1O)CCc1c-2nn(CCCN)c1C(=O)O)CC(=O)O [Example 26]
MK-3; [3]
  IC50: 135 µM
MAPKAPK2 (MK-2); [4]
  IC50: 22.2 µM

## NCCCn1nc2c(c1C(=O)O)CCc1cc(O)c(-c3cccc(C(=O)O)c3)cc1-2 [Example 36]
MK-3; [3]
  IC50: > 200 µM
MAPKAPK2 (MK-2); [4]
  IC50: 47.3 µM

## COc1cc2c(cc1-c1cccc(C#N)c1)-c1nn(CCCNC(=O)OC(C)(C)C)c(C(=O)O)c1CC2 [Example 38]
MK-3; [3]
  IC50: > 200 µM
MAPKAPK2 (MK-2); [4]
  IC50: 56.2 µM

## NCCCn1nc2c(c1C(=O)O)CCc1cc(O)c(-c3cccc([N+](=O)[O-])c3)cc1-2 [Example 1]
MK-3; [3]
  IC50: 115 µM
MAPKAPK2 (MK-2); [4]
  IC50: 0.823 µM

## COc1cc2c(cc1CCc1ccc(Cl)cc1)-c1nn(CCCNC(=O)OC(C)(C)C)c(C(=O)O)c1CC2 [Example 40]
MK-3; [3]
  IC50: > 200 µM
MAPKAPK2 (MK-2); [4]
  IC50: 59.6 µM

## O=C(O)c1c2c(nn1CCCNCCc1cccs1)-c1cn[nH]c1CC2 [Example 7]
MK-3; [1]
  IC50: 55.2 µM
MAPKAPK2 (MK-2); [2]
  IC50: 3.66 µM

## NCCCn1nc2c(c1C(=O)O)CCc1cc(O)ccc1-2 [Example 4]
MK-3; [3]
  IC50: 37.9 µM
MAPKAPK2 (MK-2); [4]
  IC50: 2.09 µM

## COc1cccc(-c2cc3c(cn2)CCc2c-3nn(CCCN)c2C(=O)O)c1 [Example 14]
MK-3
  IC50: 0.875 µM
MAPKAPK2 (MK-2); read-out: MK-2 Avg. IC50
  IC50: 0.0558 µM

## O=C1NCCn2nc3c(c21)CCc1cnc(/C=C/c2ccc(O)cc2)cc1-3 [Example 29]
MK-3
  IC50: 27.5 µM
MAPKAPK2 (MK-2); read-out: MK-2 Avg. IC50
  IC50: 0.164 µM

## NCCCn1nc2c(c1C(=O)O)CCc1cc(O)c(-c3cccc(N)c3)cc1-2 [Example 19]
MK-3; [3]
  IC50: 166 µM
MAPKAPK2 (MK-2); [4]
  IC50: 17.2 µM

## NCCCn1nc2c(c1C(=O)O)CCc1cnc(-c3cccc(O)c3)cc1-2 [Example 4]
MK-3
  IC50: 0.55 µM
MAPKAPK2 (MK-2); read-out: MK-2 Avg. IC50
  IC50: 0.0194 µM

## COc1cc2c(cc1CCC(F)(F)F)-c1nn(CCCNC(=O)OC(C)(C)C)c(C(=O)O)c1CC2 [Example 54]
MK-3; [3]
  IC50: > 200 µM

## C=CCn1nc2c(c1C(N)=O)CCc1cnc(-c3cnc4ccccc4c3)cc1-2 [Example 258]
MAPKAPK2 (MK-2); read-out: MK-2 Avg. IC50
  IC50: 119 µM

## O=C(O)c1c2c(nn1CCO)-c1ccncc1CC2 [Example 173]
MAPKAPK2 (MK-2); read-out: MK-2 Avg. IC50
  IC50: 14.3 µM

## CS(=O)(=O)c1n[nH]c2c1-c1n[nH]c(C(N)=O)c1CC2 [Example 58]
MAPKAPK2 (MK-2); [2]
  IC50: ≥ 200 µM

## O=C1NCCn2nc3c(c21)CCc1cnc(-c2ccc(Oc4ccccc4)cc2)cc1-3 [Example 257]
MAPKAPK2 (MK-2); read-out: MK-2 Avg. IC50
  IC50: 119 µM

## CCCn1nc2c(c1C(=O)O)CCc1cnccc1-2 [Example 187]
MAPKAPK2 (MK-2); read-out: MK-2 Avg. IC50
  IC50: 20.1 µM

## O=C1NCCCn2nc3c(c21)CCc1cnc(-c2cccc([N+](=O)[O-])c2)cc1-3 [Example 50]
MAPKAPK2 (MK-2); read-out: MK-2 Avg. IC50
  IC50: 0.453 µM

## O=C(O)c1c2c(nn1CC(O)CNCCc1cccs1)-c1ccncc1CC2 (stereo not shown) [Example 273]
MAPKAPK2 (MK-2); read-out: MK-2 Avg. IC50
  IC50: 163 µM

## O=C(O)c1c2c(nn1CCCNS(=O)(=O)Cc1ccc(Cl)cc1)-c1cc(-c3cnc4ccccc4c3)ncc1CC2 [Example 54]
MK-3
  IC50: 6.46 µM

## CN(C)CCNc1cc2c(cn1)CCc1c-2nn2c1C(=O)NCC2 [Example 220]
MAPKAPK2 (MK-2); read-out: MK-2 Avg. IC50
  IC50: 60.7 µM

## O=C(NCCCn1nc2c(c1C(=O)O)CCc1cnccc1-2)c1ccccn1 [Example 261]
MAPKAPK2 (MK-2); read-out: MK-2 Avg. IC50
  IC50: 129 µM

## C=CCNC(=O)NCCCn1nc2c(c1C(=O)O)CCc1cnccc1-2 [Example 217]
MAPKAPK2 (MK-2); read-out: MK-2 Avg. IC50
  IC50: 55.3 µM

## COC(=O)c1[nH]nc2c1CCc1cnccc1-2 [Example 275]
MAPKAPK2 (MK-2); read-out: MK-2 Avg. IC50
  IC50: 171 µM

## CCOC(=O)c1[nH]nc2c1CCc1[nH]nc(SCc3ccccc3)c1-2 [Example 61]
MAPKAPK2 (MK-2); [2]
  IC50: ≥ 200 µM

## NCCCn1nc(C(N)=O)c2c1-c1cn[nH]c1CC2 [Example 28]
MAPKAPK2 (MK-2); [2]
  IC50: 104 µM

## CCC(C)Nc1cc2c(cc1O)CCc1c-2nn(CCCN)c1C(=O)O (stereo not shown) [Example 35]
MAPKAPK2 (MK-2); [4]
  IC50: 45.9 µM

## O=C(O)c1[nH]nc2c1CCc1cc(O)c(Br)cc1-2 [Example 66]
MAPKAPK2 (MK-2); [4]
  IC50: 163 µM

## NC(=O)C1CCN(CCCn2nc3c(c2C(=O)O)CCc2cnccc2-3)CC1 [Example 210]
MAPKAPK2 (MK-2); read-out: MK-2 Avg. IC50
  IC50: 47.9 µM

## CCOC(=O)c1c2c(nn1CCN)-c1ccncc1CC2 [Example 169]
MAPKAPK2 (MK-2); read-out: MK-2 Avg. IC50
  IC50: 12.3 µM

## CSc1n[nH]c2c1-c1n[nH]c(C(N)=O)c1CC2 [Example 18]
MAPKAPK2 (MK-2); [2]
  IC50: 30.3 µM

## NCCCn1nc2c(c1CO)CCc1cnccc1-2 [Example 277]
MAPKAPK2 (MK-2); read-out: MK-2 Avg. IC50
  IC50: 186 µM

## O=C(NCCCn1nc2c(c1C(=O)O)CCc1cnccc1-2)c1cccnc1 [Example 162]
MAPKAPK2 (MK-2); read-out: MK-2 Avg. IC50
  IC50: 10.4 µM

## O=C(O)c1[nH]nc2c1CCc1[nH]nc(SCc3ccccc3)c1-2 [Example 60]
MAPKAPK2 (MK-2); [2]
  IC50: ≥ 200 µM

## O=C(O)c1c2c(nn1CC(O)CNC1Cc3ccccc3C1)-c1ccncc1CC2 (stereo not shown) [Example 172]
MAPKAPK2 (MK-2); read-out: MK-2 Avg. IC50
  IC50: 14 µM
